Experimental data taken from US8389533B2, “Gem-disubstituted and spirocyclic amino pyridines/pyrimidines as cell cycle inhibitors” (Amgen Inc., priority 2008, dated 2013).

Legend:
Cdk4/CyclinD1 = Cdk4/CyclinD1 (Homo sapiens, UniProt P11802); assay: Cdk4 kinase inhibition assay (33P-ATP filter plate, Rb substrate); format: biochemical; conditions: recombinant Cdk4/CyclinD1, Rb substrate, 25 μM ATP, 1 hour room temperature; read-out: Cdk 4 IC50
Protocol: (§1) The Cdk4 and Cdk6 inhibitory activity of the compounds is measured with a kinase inhibition assay using recombinant Cdk4/CyclinD1 or Cdk6/CyclinD3 protein complexes. The protein substrate used in the assay is the retinoblastoma protein (Rb). The kinase reactions are carried out in a 96-well filter plate (MSDV N6B50, Millipore). Compounds are serially diluted in kinase buffer (20 mM Tris-HCl, pH 7.4, 50 mM NaCl, 1 mM DTT, 1 mg/ml BSA) and added to the reaction mixture containing 2.5 ng/ml Cdk4/CyclinD1 or Cdk6/CyclinD3, 25 μM ATP, 10 μCi/ml [^33P]-ATP, 0.1 μg/ml Rb in the kinase buffer. The mixture is incubated at room temperature for 1 hour and the proteins precipitated with an equal volume of 20% TCA. The plates are washed with 10% TCA according to the manufacturer's instruction and dried at room temperature. The amount of the phosphorylated Rb is determined with a TopCount (PerkinElmer). The IC50 of a compound is determined by nonlinear regression curve fitting using software program Prism 5 (GraphPad Software).

Cdk6/CyclinD3 = Cdk6/CyclinD3 (Homo sapiens, UniProt Q00534); assay: Cdk6 kinase inhibition assay (33P-ATP filter plate, Rb substrate); format: biochemical; conditions: recombinant Cdk6/CyclinD3, Rb substrate, 25 μM ATP, 1 hour room temperature; read-out: Cdk 6 IC50
Protocol: as §1

Chain of Cdk6/CyclinD3 (Q00534 whole entry): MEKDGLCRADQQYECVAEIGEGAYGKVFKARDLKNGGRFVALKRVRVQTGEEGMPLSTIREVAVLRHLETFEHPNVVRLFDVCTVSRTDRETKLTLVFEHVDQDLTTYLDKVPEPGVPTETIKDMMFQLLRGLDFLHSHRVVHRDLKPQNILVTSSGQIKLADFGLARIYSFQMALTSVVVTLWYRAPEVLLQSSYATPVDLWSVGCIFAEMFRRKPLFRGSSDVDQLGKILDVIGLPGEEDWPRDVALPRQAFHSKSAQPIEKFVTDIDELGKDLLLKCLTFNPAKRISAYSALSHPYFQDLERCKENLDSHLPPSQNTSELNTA
Chain of Cdk6/CyclinD3 (P30281 whole entry partner): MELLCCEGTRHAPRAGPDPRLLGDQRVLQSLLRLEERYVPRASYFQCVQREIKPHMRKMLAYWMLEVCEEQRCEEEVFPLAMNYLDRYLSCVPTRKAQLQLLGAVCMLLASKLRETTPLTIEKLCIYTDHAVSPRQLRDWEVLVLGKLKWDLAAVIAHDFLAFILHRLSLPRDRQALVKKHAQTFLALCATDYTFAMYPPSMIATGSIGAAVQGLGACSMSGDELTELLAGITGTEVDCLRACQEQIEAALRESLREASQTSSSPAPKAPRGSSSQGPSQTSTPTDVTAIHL
Chain of Cdk4/CyclinD1 (P11802 whole entry): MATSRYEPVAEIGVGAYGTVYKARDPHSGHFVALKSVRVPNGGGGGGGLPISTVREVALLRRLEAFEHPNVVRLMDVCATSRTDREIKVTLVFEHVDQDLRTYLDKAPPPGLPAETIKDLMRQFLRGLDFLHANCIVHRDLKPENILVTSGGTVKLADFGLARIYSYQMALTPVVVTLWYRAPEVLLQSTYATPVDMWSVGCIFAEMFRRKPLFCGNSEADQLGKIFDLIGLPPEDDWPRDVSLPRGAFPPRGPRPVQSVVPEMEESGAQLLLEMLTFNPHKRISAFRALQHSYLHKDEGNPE
Chain of Cdk4/CyclinD1 (P24385 whole entry partner): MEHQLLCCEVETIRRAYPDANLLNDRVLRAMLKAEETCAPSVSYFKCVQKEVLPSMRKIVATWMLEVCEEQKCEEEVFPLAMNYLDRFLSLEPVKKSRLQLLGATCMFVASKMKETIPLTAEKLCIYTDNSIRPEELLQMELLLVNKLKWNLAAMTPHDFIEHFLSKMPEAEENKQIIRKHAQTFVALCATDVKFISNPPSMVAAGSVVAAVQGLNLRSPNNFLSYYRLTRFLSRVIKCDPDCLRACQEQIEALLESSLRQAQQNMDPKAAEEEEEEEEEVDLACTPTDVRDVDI

**Q.** With `OC1CCC2(CC1)Oc1ncccc1-c1cnc(Nc3ccc(N4CCNCC4)cn3)nc12` (mixture of isomers) [Example 40] as the compound, how does the IC50 (Cdk4/CyclinD1) read?
**A.** The IC50 was 84 nM.

**Q.** And the IC50 (Cdk6/CyclinD3)?
**A.** Its IC50 is 33 nM.

**Q.** Which IC50 (Cdk4/CyclinD1) does the source give for `CC1(C)CC2(CCO1)Oc1ncccc1-c1cnc(Nc3ccc(N4CCNCC4)cc3)nc12` (racemic) [Example 35, (racemic)-2,2-dimethyl-N-(4-(1-piperazinyl)phenyl)-2,3,5,6-tetrahydrospiro[pyran-4,5′-pyrido[3′,2′:5,6]pyrano[3,4-d]pyrimidin]-3′-amine] here?
**A.** Its IC50 is 77 nM.

**Q.** What about the IC50 (Cdk6/CyclinD3) of the same compound?
**A.** The IC50 was 60 nM.

**Q.** For `CC1(C)C=CC2(CC1)c1cnccc1-c1cnc(Nc3ccc(N4CCNCC4)cc3)nc12` (racemic) [Example 44, (racemic)-4,4-dimethyl-N-(4-(1-piperazinyl)phenyl)spiro[cyclohex-2-ene-1,9′-pyrido[4′,3′:3,4]cyclopenta[1,2-d]pyrimidin]-2′-amine], which IC50 (Cdk4/CyclinD1) is on record?
**A.** The IC50 was 0.8 nM.

**Q.** And the IC50 (Cdk6/CyclinD3)?
**A.** The IC50 was 27 nM.

**Q.** Which results are given for `CN(C)C1CCN(c2ccc(Nc3ncc4c(n3)C3(C=CC(C)(C)CC3)c3cnccc3-4)nn2)CC1` (racemic) [Example 76, (racemic)-4,4-dimethyl-N-(6-(4-(dimethylamino)piperidin-1-yl)-pyridazin-3-yl)spiro[cyclohex-2-ene-1,9′-pyrido[4′,3′:3,4]cyclopenta[1,2-d]pyrimidin]-2′-amine]?
**A.** IC50 (Cdk4/CyclinD1): 14.6 nM; IC50 (Cdk6/CyclinD3): 205 nM

**Q.** `CN1CCN(c2ccc(Nc3ncc4c(n3)C3(CCCCC3)Oc3ccccc3-4)cc2)CC1` [Example 3, N-(4-(4-methyl-1-piperazinyl)phenyl)spiro[chromeno[3,4-d]pyrimidine-5,1′-cyclohexan]-3-amine] was tested. Which IC50 (Cdk4/CyclinD1) did it give?
**A.** Its IC50 is 14.2 nM.

**Q.** What about the IC50 (Cdk6/CyclinD3) of the same compound?
**A.** Its IC50 is 14.2 nM.

**Q.** With `c1ccc2c(c1)OC1(CCCC1)c1nc(Nc3ccc(N4CCNCC4)cn3)ncc1-2` [Example 15, N-(5-(1-piperazinyl)-2-pyridinyl)spiro[chromeno[3,4-d]pyrimidine-5,1′-cyclopentan]-3-amine] as the compound, how does the IC50 (Cdk4/CyclinD1) read?
**A.** The IC50 was 84 nM.

**Q.** What about the IC50 (Cdk6/CyclinD3) of the same compound?
**A.** Its IC50 is 13.5 nM.

**Q.** What does the source list for `CS(=O)(=O)c1cccc2c1OC1(CCCCC1)c1nc(Nc3ccc(N4CCNCC4)cn3)ncc1-2` [Example 23, 7-(methylsulfonyl)-N-(5-(1-piperazinyl)-2-pyridinyl)spiro[chromeno[3,4-d]pyrimidine-5,1′-cyclohexan]-3-amine]?
**A.** IC50 (Cdk4/CyclinD1): 2850 nM; IC50 (Cdk6/CyclinD3): 2620 nM

**Q.** Which results are given for `c1cnc2c(c1)OC1(CCOCC1)c1nc(Nc3ccc(N4CCNCC4)cc3)ncc1-2` [Example 25, N-(4-(1-piperazinyl)phenyl)-2,3,5,6-tetrahydrospiro[pyran-4,6′-pyrido[2′,3′:5,6]pyrano[3,4-d]pyrimidin]-8′-amine]?
**A.** IC50 (Cdk4/CyclinD1): 330 nM; IC50 (Cdk6/CyclinD3): 540 nM

**Q.** For `CC1(C)CCC2(CC1)Oc1ncccc1-c1cnc(Nc3ccc(N4CCNCC4)cn3)nc12` [Example 27, 4,4-dimethyl-N-(5-(1-piperazinyl)-2-pyridinyl)spiro[cyclohexane-1,5′-pyrido[3′,3′:5,6]pyrano[3,4-d]pyrimidin]-3′-amine], which IC50 (Cdk4/CyclinD1) is on record?
**A.** Its IC50 is 74 nM.

**Q.** What about the IC50 (Cdk6/CyclinD3) of the same compound?
**A.** Its IC50 is 68 nM.

**Q.** Which results are given for `c1cnc2c(c1)-c1cnc(Nc3ccc(N4CCNCC4)cc3)nc1C1(CCCCC1)O2` [Example 29, N-(4-(1-piperazinyl)phenyl)spiro[cyclohexane-1,5′-pyrido[3′,2′:5,6]pyrano[3,4-d]pyrimidin]-3′-amine]?
**A.** IC50 (Cdk4/CyclinD1): 5.9 nM; IC50 (Cdk6/CyclinD3): 1.1 nM

**Q.** `O=C(c1csc(Nc2ncc3c(n2)C2(CCCCC2)c2cnccc2-3)n1)N1CCNCC1` [Example 48, N-(4-(1-piperazinylcarbonyl)-1,3-thiazol-2-yl)spiro[cyclohexane-1,9′-pyrido[4′,3′:3,4]cyclopenta[1,2-d]pyrimidin]-2′-amine] was tested. Which IC50 (Cdk4/CyclinD1) did it give?
**A.** Its IC50 is 44 nM.

**Q.** And the IC50 (Cdk6/CyclinD3)?
**A.** Its IC50 is 266 nM.

**Q.** With `CC1(C)CCc2cnc(Nc3ccc(N4CCNCC4)cc3)nc21` [Example 49, 7,7-dimethyl-N-(4-(1-piperazinyl)phenyl)-6,7-dihydro-5H-cyclopenta[d]pyrimidin-2-amine] as the compound, how does the IC50 (Cdk4/CyclinD1) read?
**A.** Its IC50 is 668 nM.

**Q.** What does the source list for `c1ccc2c(c1)-c1cnc(Nc3ccc(N4CCNCC4)cc3)nc1C21CCNCC1` [Example 50, N-(4-(1-piperazinyl)phenyl)spiro[indeno[2,1-d]pyrimidine-9,4′-piperidin]-2-amine]?
**A.** IC50 (Cdk4/CyclinD1): 56.2 nM; IC50 (Cdk6/CyclinD3): 81 nM

**Q.** `c1cc2c(cn1)C1(CCOCC1)c1nc(Nc3ccc(N4CCNCC4)cn3)ncc1-2` [Example 63, N-(5-(1-piperazinyl)-2-pyridinyl)-2,3,5,6-tetrahydrospiro[pyran-4,9′-pyrido[4′,3′:3,4]cyclopenta[1,2-d]pyrimidin]-2′-amine] was tested. Which IC50 (Cdk4/CyclinD1) did it give?
**A.** Its IC50 is 410 nM.

**Q.** `O=C1NC2(CCCCC2)c2nc(Nc3ccc(N4CCNCC4)cc3)ncc21` [Example 68, 2′-((4-(1-piperazinyl)phenyl)amino)spiro[cyclohexane-1,7′-pyrrolo[3,4-d]pyrimidin]-5′(6′H)-one] was tested. Which IC50 (Cdk4/CyclinD1) did it give?
**A.** Its IC50 is 1140 nM.

**Q.** How did the IC50 (Cdk4/CyclinD1) turn out when `CC1CC(O)C2(CC=CC2)c2nc(Nc3ccc(N4CCNCC4)cn3)ncc21` [Example 71, (7S)-5′-methyl-2′-((5-(1-piperazinyl)-2-pyridinyl)amino)-6′,7′-dihydro-5′H-spiro[cyclopent-3-ene-1,8′-quinazolin]-7′-ol] was run?
**A.** The IC50 was 710 nM.

**Q.** And the IC50 (Cdk6/CyclinD3)?
**A.** The IC50 was 510 nM.

**Q.** With `CC1=CC(=O)C2(CCCC2)c2nc(Nc3ccc(N4CCNCC4)cn3)ncc21` [Example 73, 5′-methyl-2′-((5-(1-piperazinyl)-2-pyridinyl)amino)-7′H-spiro[cyclopentane-1,8′-quinazolin]-7′-one] as the compound, how does the IC50 (Cdk4/CyclinD1) read?
**A.** Its IC50 is 2500 nM.

**Q.** `C[C@@H]1CC(=O)C2(CC=CC2)c2nc(Nc3ccc(N4CCNCC4)cn3)ncc21` [Example 74, (5′R)-5′-methyl-2′-((5-(1-piperazinyl)-2-pyridinyl)amino)-5′,6′-dihydro-7′H-spiro[cyclopent-3-ene-1,8′-quinazolin]-7′-one] was tested. Which IC50 (Cdk4/CyclinD1) did it give?
**A.** Its IC50 is 3500 nM.

**Q.** And the IC50 (Cdk6/CyclinD3)?
**A.** The IC50 was 1800 nM.
